Data reported in patent US8933018B2, “Boron containing polybasic bacterial efflux pump inhibitors and therapeutic uses thereof” (priority 2011, dated 2015).

system: P. aeruginosa, PAM1723, overexpressing the MexAB-OprM efflux pump; assay type: cell-based, Pseudomonas aeruginosa; conditions: lowest EPI concentration giving antibacterial activity with levofloxacin at 1/8 of its MIC, MHB, 20 h at 35° C.
Procedure: All EPI compounds were readily soluble in water and stock solutions were prepared at a final concentration of 10 mg/ml. Stock solutions were further diluted, according to the needs of the particular assay, in Mueller Hinton Broth (MHB). Stock solution was stored at […].
The checkerboard assay was performed in microtiter plates. […] EPIs were diluted in the y-axis, each row containing a single concentration of an EPI. […] The assay was performed in MHB with a final bacterial inoculum of 5 times 10^5 CFU/ml (from an early-log phase culture). Microtiter plates were incubated during 20 h at 35° C. and were read using a microtiter plate reader (Molecular Devices) at 650 nm as well as visual observation using a microtiter plate-reading mirror.

SMILES | MPC8 (Minimum Potentiating Concentration)
NCCN(CCN)C(=O)C[C@H](N)C(=O)N[C@@H](Cc1ccc(C(F)(F)F)cc1)C(=O)Nc1cc(B(O)O)cc(C(F)(F)F)c1 [Compound 11, 3-((S)-2-((S)-2-amino-4-(bis(2-aminoethyl)amino)-4-oxobutanamido)-3-(4-(trifluoromethyl)phenyl)propanamido)-5-(trifluoromethyl)phenylboronic acid] | B (B = MPC8 of 2.5 μg/ml to less than 10 μg/mL.)
NCCN(CCN)C(=O)CC[C@H](N)C(=O)N[C@H](CCC1CCCCC1)C(=O)Nc1cc(B(O)O)cc(C(F)(F)F)c1 [Compound 12, 3-((R)-2-((S)-2-amino-5-(bis(2-aminoethyl)amino)-5-oxopentanamido)-4-cyclohexylbutanamido)-5-(trifluoromethyl)phenylboronic acid] | A (A = MPC8 of less than 2.5 μg/mL.)
NCCN(CCN)C(=O)CC[C@H](N)C(=O)N[C@H](CCc1ccc(C(F)(F)F)cc1)C(=O)Nc1cc(B(O)O)cc(C(F)(F)F)c1 [Compound 13, 3-((R)-2-((S)-2-amino-5-(bis(2-aminoethyl)amino)-5-oxopentanamido)-4-(4-(trifluoromethyl)phenyl)butanamido)-5-(trifluoromethyl)phenylboronic acid] | B (B = MPC8 of 2.5 μg/ml to less than 10 μg/mL.)
NCCN(CCN)C(=O)CC[C@H](N)C(=O)N[C@H](Cc1ccc(C(F)(F)F)cc1)C(=O)Nc1cc(B(O)O)cc(C(F)(F)F)c1 [Compound 15, 3-((R)-2-((S)-2-amino-5-(bis(2-aminoethyl)amino)-5-oxopentanamido)-3-(4-(trifluoromethyl)phenyl)propanamido)-5-(trifluoromethyl)phenylboronic acid] | B (B = MPC8 of 2.5 μg/ml to less than 10 μg/mL.)
NCCN(CCN)C(=O)CC[C@H](N)C(=O)N[C@H](Cc1ccc(C(F)(F)F)cc1)C(=O)Nc1ccc(C(F)(F)F)c(B(O)O)c1 [Compound 16, 5-((R)-2-((S)-2-amino-5-(bis(2-aminoethyl)amino)-5-oxopentanamido)-3-(4-(trifluoromethyl)phenyl)propanamido)-2-(trifluoromethyl)phenylboronic acid] | C (C = MPC8 of 10 μg/mL or greater.)
NCCN(CCN)C(=O)CC[C@H](N)C(=O)N[C@H](Cc1ccc(C(F)(F)F)cc1)C(=O)Nc1ccc(B(O)O)c(C(F)(F)F)c1 [Compound 17, 4-((R)-2-((S)-2-amino-5-(bis(2-aminoethyl)amino)-5-oxopentanamido)-3-(4-(trifluoromethyl)phenyl)propanamido)-2-(trifluoromethyl)phenylboronic acid] | C (C = MPC8 of 10 μg/mL or greater.)
N[C@@H]1C[C@H](N)CN(C(=O)CC[C@H](N)C(=O)N[C@H](Cc2ccc(C(F)(F)F)cc2)C(=O)Nc2cc(B(O)O)cc(C(F)(F)F)c2)C1 [Compound 18, 3-((R)-2-((S)-2-amino-5-((3R,5S)-3,5-diaminopiperidin-1-yl)-5-oxopentanamido)-3-(4-(trifluoromethyl)phenyl)propanamido)-5-(trifluoromethyl)phenylboronic acid] | B (B = MPC8 of 2.5 μg/ml to less than 10 μg/mL.)
N[C@@H]1CC(NC(=O)CC[C@H](N)C(=O)N[C@H](Cc2ccc(C(F)(F)F)cc2)C(=O)Nc2cc(B(O)O)cc(C(F)(F)F)c2)C[C@H](N)C1 (stereo partly drawn) [Compound 19, 3-((R)-2-((S)-2-amino-5-((1R,3R,5S)-3,5-diaminocyclohexylamino)-5-oxopentanamido)-3-(4-(trifluoromethyl)phenyl)propanamido)-5-(trifluoromethyl)phenylboronic acid] | B (B = MPC8 of 2.5 μg/ml to less than 10 μg/mL.)
NCC(O)(CN)CNC(=O)CC[C@H](N)C(=O)N[C@H](CCc1ccc(C(F)(F)F)cc1)C(=O)Nc1cc(B(O)O)cc(C(F)(F)F)c1 [Compound 21, 3-((R)-2-((S)-2-amino-5-(3-amino-2-(aminomethyl)-2-hydroxypropylamino)-5-oxopentanamido)-4-(4-(trifluoromethyl)phenyl)butanamido)-5-(trifluoromethyl)phenylboronic acid] | B (B = MPC8 of 2.5 μg/ml to less than 10 μg/mL.)
NCC(O)(CN)CNC(=O)CC[C@H](N)C(=O)N[C@H](CCc1ccc(C(F)(F)F)cc1)C(=O)Nc1cccc(B(O)O)c1 [Compound 22, 3-((R)-2-((S)-2-amino-5-(3-amino-2-(aminomethyl)-2-hydroxypropylamino)-5-oxopentanamido)-4-(4-(trifluoromethyl)phenyl)butanamido) phenylboronic acid] | B (B = MPC8 of 2.5 μg/ml to less than 10 μg/mL.)
N[C@@H]1C[C@H](N)C[C@H](NC(=O)CC[C@H](N)C(=O)N[C@H](CCc2ccc(C(F)(F)F)cc2)C(=O)Nc2cccc(B(O)O)c2)C1 [Compound 23, 3-((R)-2-((S)-2-amino-5-((1S,3R,5S)-3,5-diaminocyclohexylamino)-5-oxopentanamido)-4-(4-(trifluoromethyl)phenyl)butanamido)phenylboronic acid] | B (B = MPC8 of 2.5 μg/ml to less than 10 μg/mL.)
N[C@@H]1C[C@H](N)CN(C(=O)CC[C@H](N)C(=O)N[C@H](CCc2ccc(C(F)(F)F)cc2)C(=O)Nc2cccc(B(O)O)c2)C1 [Compound 24, 3-((R)-2-((S)-2-amino-5-((3R,5S)-3,5-diaminopiperidin-1-yl)-5-oxopentanamido)-4-(4-(trifluoromethyl)phenyl)butanamido)phenylboronic acid] | B (B = MPC8 of 2.5 μg/ml to less than 10 μg/mL.)
NCCN(CCN)C(=O)CC[C@H](N)C(=O)N[C@H](CCc1ccc(C(F)(F)F)cc1)C(=O)Nc1cc(B(O)O)ccc1F [Compound 25, 3-((R)-2-((S)-2-amino-5-(bis(2-aminoethyl)amino)-5-oxopentanamido)-4-(4-(trifluoromethyl)phenyl)butanamido)-4-fluorophenylboronic acid] | B (B = MPC8 of 2.5 μg/ml to less than 10 μg/mL.)
CC1(C)OB(O)c2cc(NC(=O)[C@@H](CCc3ccc(C(F)(F)F)cc3)NC(=O)[C@@H](N)CCC(=O)N(CCN)CCN)ccc21 [Compound 26, (S)-2-amino-N5,N5-bis(2-aminoethyl)-N1-((R)-1-(1-hydroxy-3,3-dimethyl-1,3-dihydrobenzo[c][1,2]oxaborol-6-ylamino)-1-oxo-4-(4-(trifluoromethyl)phenyl)butan-2-yl)pentanediamide] | A (A = MPC8 of less than 2.5 μg/mL.)
CC1(C)OB(O)c2cc(NC(=O)[C@@H](CCc3ccc(C(F)(F)F)cc3)NC(=O)[C@@H](N)CCC(=O)NCC(O)(CN)CN)ccc21 [Compound 27, (S)-2-amino-N5-(3-amino-2-(aminomethyl)-2-hydroxypropyl)-N1-((R)-1-(1-hydroxy-3,3-dimethyl-1,3-dihydrobenzo[c][1,2]oxaborol-6-ylamino)-1-oxo-4-(4-(trifluoromethyl)phenyl)butan-2-yl)pentanediamide] | B (B = MPC8 of 2.5 μg/ml to less than 10 μg/mL.)
NCCN(CCN)C(=O)CC[C@H](N)C(=O)N[C@H](CCc1ccc(C(F)(F)F)cc1)C(=O)Nc1cc(B(O)O)cc(F)c1F [Compound 28, 3-((R)-2-((S)-2-amino-5-(bis(2-aminoethyl)amino)-5-oxopentanamido)-4-(4-(trifluoromethyl)phenyl)butanamido)-4,5-difluorophenylboronic acid] | A (A = MPC8 of less than 2.5 μg/mL.)
NCCN(CCN)C(=O)CC[C@H](N)C(=O)N[C@H](CCc1ccc(C(F)(F)F)cc1)C(=O)Nc1ccc(B(O)O)c(F)c1 [Compound 29, 4-((R)-2-((S)-2-amino-5-(bis(2-aminoethyl)amino)-5-oxopentanamido)-4-(4-(trifluoromethyl)phenyl)butanamido)-2-fluorophenylboronic acid] | B (B = MPC8 of 2.5 μg/ml to less than 10 μg/mL.)
NCCN(CCN)C(=O)CC[C@H](N)C(=O)N[C@H](CCc1ccc(C(F)(F)F)cc1)C(=O)Nc1cc(B(O)O)c(F)cc1F [Compound 30, 5-((R)-2-((S)-2-amino-5-(bis(2-aminoethyl)amino)-5-oxopentanamido)-4-(4-(trifluoromethyl)phenyl)butanamido)-2,4-difluorophenylboronic acid] | C (C = MPC8 of 10 μg/mL or greater.)
NCCN(CCN)C(=O)CC[C@H](N)C(=O)N[C@H](CCc1ccc(C(F)(F)F)cc1)C(=O)Nc1cc2c(c(C(F)(F)F)c1)COB2O [Compound 31, (S)-2-amino-N5,N5-bis(2-aminoethyl)-N1-((R)-1-(1-hydroxy-4-(trifluoromethyl)-1,3-dihydrobenzo[c][1,2]oxaborol-6-ylamino)-1-oxo-4-(4-(trifluoromethyl)phenyl)butan-2-yl)pentanediamide] | B (B = MPC8 of 2.5 μg/ml to less than 10 μg/mL.)
NCCN(CCN)C(=O)CC[C@H](N)C(=O)N[C@H](CCc1ccc(C(F)(F)F)cc1)C(=O)Nc1ccc(F)c(B(O)O)c1 [Compound 32, 5-((R)-2-((S)-2-amino-5-(bis(2-aminoethyl)amino)-5-oxopentanamido)-4-(4-(trifluoromethyl)phenyl)butanamido)-2-fluorophenylboronic acid] | B (B = MPC8 of 2.5 μg/ml to less than 10 μg/mL.)
